Test results reported in patent US20200368247A1, “CENICRIVIROC FOR THE TREATMENT OF FIBROSIS” (Tobira Therapeutics, Inc., priority 2014, published 2020).
Where two headings read alike, the source gives them in different places. Marks after values point to notes of the source that are not given here.

Legend:
[1] = Study 202 ECG abnormalities; assay type: in vivo, human; conditions: through Week 48
[2] = for SAE: Suicidal ideation: through Week 48
Excerpt: Subjects with a history of HIV-2, hepatitis B and/or C, cirrhosis of the liver or any known active or chronic active liver disease were excluded from the study.
Most AEs were mild or moderate (Grade 1 or Grade 2). […] None of the Grade ≥3 AEs (preferred terms) were reported in more than 1 subject. Table 28 provides an overview of deaths, SAES, AEs, AEs by severity, AEs related to study medication, and AE leading to discontinuation.

[3] = All CVC (N = 115), EFV (N = 28)

SMILES: CCCCOCCOc1ccc(-c2ccc3c(c2)/C=C(/C(=O)Nc2ccc([S@@+]([O-])Cc4cncn4CCC)cc2)CCCN3CC(C)C)cc1 [CVC, (S)-8-[4-(2-Butoxyethoxy)phenyl]-1-isobutyl-N-(4-{[(1-propyl-1H-imidazol-5-yl)methyl]sulfinyl}phenyl)-1,2,3,4-tetrahydro-1-benzazocine-5-carboxamide]
- HR Abnormally high (120 bpm ≤ abnormally high) [1, 3]: 0 n (%)
- HR Abnormally low (≤ 50 bpm) [1, 3]: 0 n (%)
- PR Abnormally high (210 ms ≤ abnormally high) [1, 3]: 3 (3%) n (%)
- QRS Abnormally high (120 ms ≤ abnormally high) [1, 3]: 1 (1%)^d n (%)
- QRS Abnormally low (≤ 50 ms) [1, 3]: 0 n (%)
- QTcB interval Borderline (450 ms ≤ borderline ≤ 480 ms) [1, 3]: 6 (6%) n (%)
- QTcB interval Increase by >30-60 ms [1, 3]: 9 (9%) n (%)
- QTcB interval Increase by >60 ms [1, 3]: 1 (1%) n (%)
- QTcB interval Pathologically prolonged (> 500 ms) [1, 3]: 0 n (%)
- QTcB interval Prolonged (480 ms < prolonged ≤ 500 ms) [1, 3]: 0 n (%)
- QTcF interval Borderline (450 ms ≤ borderline ≤ 480 ms) [1, 3]: 2 (2%) n (%)
- QTcF interval Increase by >30-60 ms [1, 3]: 7 (7%) n (%)
- QTcF interval Increase by >60 ms [1, 3]: 1 (1%) n (%)
- QTcF interval Pathologically prolonged (> 500 ms) [1, 3]: 0 n (%)
- QTcF interval Prolonged (480 ms < prolonged ≤ 500 ms) [1, 3]: 0 n (%)
- HR Abnormally high (120 bpm ≤ abnormally high) ([1]; CVC 100 mg (N = 58)): 0 n (%)
- HR Abnormally low (≤ 50 bpm) ([1]; CVC 100 mg (N = 58)): 0 n (%)
- PR Abnormally high (210 ms ≤ abnormally high) ([1]; CVC 100 mg (N = 58)): 2 (3%) n (%)
- QRS Abnormally high (120 ms ≤ abnormally high) ([1]; CVC 100 mg (N = 58)): 1 (2%)^d n (%)
- QRS Abnormally low (≤ 50 ms) ([1]; CVC 100 mg (N = 58)): 0 n (%)
- QTcB interval Borderline (450 ms ≤ borderline ≤ 480 ms) ([1]; CVC 100 mg (N = 58)): 4 (8%) n (%)
- QTcB interval Increase by >30-60 ms ([1]; CVC 100 mg (N = 58)): 6 (12%) n (%)
- QTcB interval Increase by >60 ms ([1]; CVC 100 mg (N = 58)): 1 (2%) n (%)
- QTcB interval Pathologically prolonged (> 500 ms) ([1]; CVC 100 mg (N = 58)): 0 n (%)
- QTcB interval Prolonged (480 ms < prolonged ≤ 500 ms) ([1]; CVC 100 mg (N = 58)): 0 n (%)
- QTcF interval Borderline (450 ms ≤ borderline ≤ 480 ms) ([1]; CVC 100 mg (N = 58)): 1 (2%) n (%)
- QTcF interval Increase by >30-60 ms ([1]; CVC 100 mg (N = 58)): 4 (8%) n (%)
- QTcF interval Increase by >60 ms ([1]; CVC 100 mg (N = 58)): 1 (2%) n (%)
- QTcF interval Pathologically prolonged (> 500 ms) ([1]; CVC 100 mg (N = 58)): 0 n (%)
- QTcF interval Prolonged (480 ms < prolonged ≤ 500 ms) ([1]; CVC 100 mg (N = 58)): 0 n (%)
- HR Abnormally high (120 bpm ≤ abnormally high) ([1]; CVC 200 mg (N = 57)): 0 n (%)
- HR Abnormally low (≤ 50 bpm) ([1]; CVC 200 mg (N = 57)): 0 n (%)
- PR Abnormally high (210 ms ≤ abnormally high) ([1]; CVC 200 mg (N = 57)): 1 (2%) n (%)
- QRS Abnormally high (120 ms ≤ abnormally high) ([1]; CVC 200 mg (N = 57)): 0 n (%)
- QRS Abnormally low (≤ 50 ms) ([1]; CVC 200 mg (N = 57)): 0 n (%)
- QTcB interval Borderline (450 ms ≤ borderline ≤ 480 ms) ([1]; CVC 200 mg (N = 57)): 2 (4%) n (%)
- QTcB interval Increase by >30-60 ms ([1]; CVC 200 mg (N = 57)): 3 (6%) n (%)
- QTcB interval Increase by >60 ms ([1]; CVC 200 mg (N = 57)): 0 n (%)
- QTcB interval Pathologically prolonged (> 500 ms) ([1]; CVC 200 mg (N = 57)): 0 n (%)
- QTcB interval Prolonged (480 ms < prolonged ≤ 500 ms) ([1]; CVC 200 mg (N = 57)): 0 n (%)
- QTcF interval Borderline (450 ms ≤ borderline ≤ 480 ms) ([1]; CVC 200 mg (N = 57)): 1 (2%) n (%)
- QTcF interval Increase by >30-60 ms ([1]; CVC 200 mg (N = 57)): 3 (6%) n (%)
- QTcF interval Increase by >60 ms ([1]; CVC 200 mg (N = 57)): 0 n (%)
- QTcF interval Pathologically prolonged (> 500 ms) ([1]; CVC 200 mg (N = 57)): 0 n (%)
- QTcF interval Prolonged (480 ms < prolonged ≤ 500 ms) ([1]; CVC 200 mg (N = 57)): 0 n (%)
- Deaths [2, 3]: 0 n
- SAE: Suicidal ideation [2, 3]: 0 n
- Grade 3 or 4 AE: Suicidal ideation ([2]; All CVC (N = 115), EFV (N = 28; Grade 4 event)): 0 n
- Deaths ([2]; CVC 100 mg (N = 58)): 0 n
- Grade 3 or 4 AE: Suicidal ideation ([2]; CVC 100 mg (N = 58)): 0 n
- SAE: Suicidal ideation ([2]; CVC 100 mg (N = 58)): 0 n
- Deaths ([2]; CVC 200 mg (N = 57)): 0 n
- Grade 3 or 4 AE: Suicidal ideation ([2]; CVC 200 mg (N = 57)): 0 n
- SAE: Suicidal ideation ([2]; CVC 200 mg (N = 57)): 0 n
- AE leading to discontinuation: Abnormal dreams ([2]; human, in vivo, 48 week): 0 n
- AE leading to discontinuation: Aggression ([2]; human, in vivo, 48 week): 1 n
- AE leading to discontinuation: Anxiety ([2]; human, in vivo, 48 week): 0 n
- AE leading to discontinuation: Depression ([2]; human, in vivo, 48 week): 1 n
- AE leading to discontinuation: Dermatitis allergic ([2]; human, in vivo, 48 week): 0 n
- AE leading to discontinuation: Ear and labyrinth disorders ([2]; human, in vivo, 48 week): 0 n
- AE leading to discontinuation: Insomnia ([2]; human, in vivo, 48 week): 0 n
- AE leading to discontinuation: Psychiatric disorders ([2]; human, in vivo, 48 week): 1 n
- AE leading to discontinuation: Rash ([2]; human, in vivo, 48 week): 0 n
- AE leading to discontinuation: Skin and subcutaneous tissue disorders ([2]; human, in vivo, 48 week): 0 n
- AE leading to discontinuation: Tachyphrenia ([2]; human, in vivo, 48 week): 0 n
- AE leading to discontinuation: Thinking abnormal ([2]; human, in vivo, 48 week): 1 n
- AE leading to discontinuation: Tinnitus ([2]; human, in vivo, 48 week): 0 n
- Any AE, % ([2]; human, in vivo, 48 week): (86%)
- Depression, % ([2]; human, in vivo, 48 week): (3%)
